{"source": "patent US20260076937A1", "about": "“COMPOSITION FOR PREVENTING OR TREATING AUTOIMMUNE DISEASES COMPRISING A BCAT1 INHIBITOR” (Seoul National University R&DB Foundation, priority 2024, published 2026)", "key": {"[1]": {"test_system": "TCR-stimulated human CD4+ T cells", "test": "3H-leucine uptake assay", "assay_type": "cell-based", "details": "BCH 50 mM, JPH203 10 μM, LβhL 400 mg/L", "protocol": "After the culture medium was removed, the cells were cultured in HBSS for 10 minutes. ^3H-leucine or ^3H-methionine (Perkin Elmer, Waltham, MA) uptake assays were initiated by culturing cells for 15 min in HBSS with 0.5-1 μCi. Cells were separated with 1 M NaOH after three washes with ice-cold HBSS. Radioactivity was measured using a beta scintillation counter MicroBeta® (Perkin Elmer)."}, "HIF-1α [2]": {"test_system": "HIF-1α", "test": "HIF-1α immunoblot in TCR-stimulated CD4+ memory T cells", "assay_type": "cell-based, human", "details": "for HIF-1α expression reduced by Bi2 (effect of added substance): Bi2 plus HMB 0.4 mM, CoCl2, VH298 or MG132; for HIF-1α protein expression: TCR-stimulated CD4+ memory T cells, Bi2 10 μM, CoCl2 100 μM, VH298 100 μM, MG132 5 μM", "protocol": "(§1) Cells were cultured in radioimmunoprecipitation assay (RIPA) buffer (150 mM NaCl, 10 mM Na2HPO4, pH 7.2, 1% Nonidet P-40, 0.5% deoxycholate) containing phenylmethylsulfonyl fluoride (PMSF; Millipore Sigma, Burlington, MA), EDTA, protease and phosphatase inhibitor cocktail (Thermo Fisher Scientific) to extract total protein. Proteins were separated on 8-10% SDS-polyacrylamide gels and blotted onto polyvinylidene difluoride (PVDF) membranes (Bio-Rad, Hercules, CA) followed by 5% BSA in Tris buffered saline (TBS) with 0.1% Tween 20 and blocked for 1 hour. Membranes were cultured overnight with anti-human SLC7A5, anti-BCAT, anti-phospho-p70S6K, anti-p70S6K, anti-HIF-1α (all provided by Cell Signaling Technology, Danvers, MA) primary antibodies at 4° C., followed by culture with HRP-conjugated secondary antibodies for 1 hour at room temperature. Membranes were developed using SuperSignal West Femto Maximum Sensitivity Substrate or SuperSignal West Pico PLUS Chemiluminescent Substrate system (Thermo Fisher Scientific)."}, "HIF-1α [3]": {"test_system": "HIF-1α", "test": "RT-qPCR of HIF-1α and HIF-1α target genes in CD4+ memory T cells", "assay_type": "cell-based, human", "details": "HMB 0.4 mM", "protocol": "Total RNA was prepared using TRIzol reagent (Life Technologies, Grand Island, NY), followed by cDNA synthesis (Promega, Madison, WI), followed by real-time quantitative RT-PCR with a CFX system (Bio-Rad, Hercules, CA) using SensiFAST SYBR® Lo-ROX (Bioline, London. UK). Gene expression levels were normalized for […] expression using the comparative CT method (ΔΔCT)."}, "[4]": {"details": "oral administration, healthy adults; cited from earlier work"}, "mTORC1": {"test_system": "mTORC1", "test": "Phospho-p70-S6K immunoblot (mTORC1 activity) in CD4+ memory T cells", "assay_type": "cell-based, human", "details": "HMB 0.4 mM, TCR stimulation 1 hour", "protocol": "as §1"}, "[5]": {"test_system": "human CD4+ memory T cells", "test": "Cholesterol analysis in cell lysates", "assay_type": "cell-based", "details": "Bi2 10 μM plus HMB 0.4 mM", "protocol": "Total cholesterol amount in cultured cells was determined using a fluorometric Amplex™ Red Cholesterol Assay Kit (Thermo Fisher Scientific) according to the manufacturer's instructions."}, "[6]": {"test_system": "TCR-stimulated human CD4+ memory T cells", "test": "Cytokine ELISA of culture supernatants, CD4+ memory T cells", "assay_type": "cell-based", "details": "for IFN-γ production by CD4+ memory T cells / IL-17A production by CD4+ memory T cells: TCR stimulation 3 days, Bi2 10 μM, JPH203 10 μM, LβhL 400 mg/L; for IFN-γ production by CD4+ memory T cells: HMB 0.4 mM, VH298 100 nM; for IL-17A production by CD4+ memory T cells: statin 10 μM", "protocol": "The study protocol was reviewed and approved by the Institutional Review Board (IRB) of Seoul National University Hospital. Peripheral blood was drawn from healthy controls (HC) after obtaining written consent from study participants, and all experiments were performed according to approved guidelines. Peripheral blood mononuclear cells (PBMCs) were isolated from peripheral blood using density gradient centrifugation (Biocoll separation solution; BIOCHROM Inc., Cambridge, UK). Total CD4^+ T cells, naive T cells and memory CD4^+ T-cells were isolated in a negative selection manner from CD14^+ monocyte depleted PBMCs using the MojoSort™ Human Total CD4^+ T-Cells, CD4^+ naive T-cells and CD4^+ memory T-cell isolation kit (BioLegend, San Diego, Calif.). Purified T cells were cultured in RPMI 1640 medium (hereinafter, “complete RPMI 1640”) supplemented with 10% fetal bovine serum (FBS), 1% penicillin/streptomycin, and 1% L-glutamine. Cells were stimulated with anti-CD3/CD28-coated microbeads (1:10 ratio, Dynabeads T-Activator CD3/CD28, Thermo Fisher Scientific, Waltham, MA) in the presence of designated chemical inhibitors or reagents including 2-amino-2-norbornanecarboxylic acid (BCH), JPH203, acetate, MG132, VH298, cobalt chloride (CoCl2), cycloheximid (CHX) (all provided by Sigma-Aldrich, St. Louis, MO), BCAT1 inhibitor 2 (Bi2: provided by Cayman Chemical, Ann Arbor, MI), 3-hydroxy-3-methylbutyric acid (HMB; provided by Thermo Fisher Scientific, Waltham, MA), and L-β-homoleucine (LβhL; provided by Santa Cruz Biotechnology, Heidelberg, Germany). In some experiments, a customized medium depleted of five essential amino acids (leucine, valine, isoleucine, phenylalanine, methionine) was used (Welgene, Gyeongsan, South Korea). All amino acids used (L-leucine, L-valine, L-isoleucine, L-phenylalanine, L-methionine) were purchased from Sigma-Aldrich.\nIL-17A and IFN-γ amounts in culture supernatants were quantified using commercially available human ELISA kits (IL-17A ELISA kit by eBioscience and human IFN-γ ELISA MAX Deluxe by BioLegend) according to the manufacturer's instructions. Light density was measured using an Infinite M200 instrument (Tecan, Männedorf, Switzerland)."}, "[7]": {"test_system": "human CD4+ naive and memory T cells", "test": "CFSE dilution proliferation assay", "assay_type": "cell-based", "details": "anti-CD3/CD28 microbeads; Bi2 10 μM, JPH203 10 μM, LβhL 400 mg/L", "protocol": "To analyze T cell proliferative capacity, purified isolated human CD4+ T cells were labeled with 1 μM carboxyfluorescein succinimidyl ester (CFSE; Invitrogen, Waltham, MA, USA) and then stimulated with anti-CD3/CD28 antibody coated microbeads for 4 days at 37° C. Cells were stained with 7AAD (BD Biosciences) for 10 minutes to distinguish dead cells and the extent of CFSE dilution in 7AAD-cells was measured by BD LSRFortessa to analyze proliferative capacity. Antibodies listed in Table 2 and previously known BD LSRFortessa cell analyzers were used."}, "[8]": {"test_system": "TCR-stimulated human CD4+ naive T cells", "test": "Cytokine ELISA of culture supernatants, CD4+ naive T cells", "assay_type": "cell-based", "details": "TCR stimulation 3 days"}, "EAE mice": {"test_system": "EAE mice", "test": "Experimental autoimmune encephalomyelitis (EAE) model", "assay_type": "in vivo, mouse"}, "[9]": {"details": "Bi2 10 μM plus acetate, HMB or VH298, 3 days"}, "[10]": {"details": "Bi2 10 mg/kg or LβhL 1 g/kg i.p."}}, "note": "“Also recorded” adds a separate entry of the source. Read-outs that look alike come from different tables or passages of the source. Residues, ends and D or L forms follow the SMILES beside them. *: point of attachment. Cbz = O=C(OCc1ccccc1)*"}
{"smiles": "NC1(C(=O)O)CC2CCC1C2", "note": "(centres unmarked) [BCH, 2-amino-2-norbornanecarboxylic acid]", "values": [{"measurement": "3H-leucine uptake", "setting": "[1]", "result": "greatly reduced"}]}
{"smiles": "[Cl][Co][Cl]", "note": "[CoCl2, cobalt chloride]", "values": [{"measurement": "HIF-1α expression reduced by Bi2 (effect of added substance)", "setting": "HIF-1α [2]", "result": "none of these inhibitors affected"}, {"measurement": "HIF-1α protein expression", "setting": "HIF-1α [2]", "result": "accumulation of HIF-1α"}]}
{"smiles": "CC(C)(O)CC(=O)O", "note": "[HMB, 3-hydroxy-3-methylbutyric acid]", "values": [{"measurement": "Bi2-reduced HIF-1α mRNA (effect of HMB supplementation)", "setting": "HIF-1α [3]", "result": "rapidly abolished"}, {"measurement": "Bi2-reduced SCL2A1, LDHA and PGK1 mRNA (effect of HMB supplementation)", "setting": "HIF-1α [3]; 72 hours of TCR stimulation", "result": "eliminated"}, {"measurement": "plasma half-life", "setting": "[4]", "result": "about 2.5 hours"}, {"measurement": "plasma level achievable", "setting": "[4]", "result": 400, "unit": "µM"}, {"measurement": "time to peak plasma level", "setting": "[4]", "result": "60 to 120", "unit": "min"}, {"measurement": "inhibition of mTORC1 activity by Bi2 (effect of HMB supplementation)", "setting": "mTORC1", "result": "time dependently counteracted"}, {"measurement": "HIF-1α degradation rate", "setting": "HIF-1α [2]; 24 h Bi2 pretreatment, cycloheximide chase, with or without HMB", "result": "did not affect"}, {"measurement": "HIF-1α expression reduced by Bi2 (effect of added substance)", "setting": "HIF-1α [2]", "result": "abrogates this attenuation; also recorded: reversed; also recorded: increased"}, {"measurement": "cholesterol in Bi2-treated cells (effect of HMB supplementation)", "setting": "[5]", "result": "inhibited; also recorded: decreased"}, {"measurement": "IL-17A production in Bi2-treated CD4+ memory T cells (effect of added substance)", "setting": "[6]; [9]", "result": "partially reversed; also recorded: resolved"}, {"measurement": "IFN-γ production by CD4+ memory T cells", "setting": "[6]", "result": "not affected; also recorded: did not affect"}]}
{"smiles": "Nc1cc(COc2c(Cl)cc(C[C@H](N)C(=O)O)cc2Cl)c2oc(-c3ccccc3)nc2c1", "note": "[JPH203]", "values": [{"measurement": "proliferation (CFSE dilution)", "setting": "[7]", "result": "completely blocked"}, {"measurement": "IL-2 production by CD4+ naive T cells", "setting": "[8]", "result": "not affected"}, {"measurement": "3H-leucine uptake", "setting": "[1]", "result": "greatly reduced"}, {"measurement": "IFN-γ production by CD4+ memory T cells", "setting": "[6]", "result": "decreased significantly"}, {"measurement": "IL-17A production by CD4+ memory T cells", "setting": "[6]", "result": "decreased significantly"}]}
{"smiles": "CC(C)C[C@H](N)CC(=O)O", "note": "[LβhL, L-β-homoleucine]", "values": [{"measurement": "CD4+ T-cells producing IL-17A in spinal cord infiltrates and draining LN", "setting": "EAE mice; [10]", "result": "significantly reduced"}, {"measurement": "HIF-1α expression in CD4+ T-cells of spinal cord (intracellular staining)", "setting": "EAE mice; [10]", "result": "decreased"}, {"measurement": "cell infiltration in spinal cord", "setting": "EAE mice; [10]", "result": "significantly lower"}, {"measurement": "nerve damage, spinal cord histology", "setting": "EAE mice; [10]", "result": "significantly lower"}, {"measurement": "EAE clinical score / severity", "setting": "EAE mice; i.p. three times a week for 14 days, Bi2 10 mg/kg, LβhL 1 g/kg", "result": "attenuated; also recorded: improves EAE induction"}, {"measurement": "proliferation (CFSE dilution)", "setting": "[7]", "result": "did not affect"}, {"measurement": "3H-leucine uptake", "setting": "[1]", "result": "competitively inhibited"}, {"measurement": "IL-17A production by CD4+ memory T cells", "setting": "[6]", "result": "preferentially reduced; also recorded: attenuates"}]}
{"smiles": "CC(C)C[C@@H](C=O)NC(=O)[C@H](CC(C)C)NC(=O)[C@H](CC(C)C)NC(=O)OCc1ccccc1", "note": "[MG132] (Cbz-Leu-Leu-Leu-aldehyde)", "values": [{"measurement": "HIF-1α expression reduced by Bi2 (effect of added substance)", "setting": "HIF-1α [2]", "result": "none of these inhibitors affected"}, {"measurement": "HIF-1α protein expression", "setting": "HIF-1α [2]", "result": "accumulation of HIF-1α"}]}
{"smiles": "Cc1ncsc1-c1ccc(CNC(=O)[C@@H]2C[C@@H](O)CN2C(=O)[C@@H](NC(=O)C2(C#N)CC2)C(C)(C)C)cc1", "note": "[VH298]", "values": [{"measurement": "HIF-1α expression reduced by Bi2 (effect of added substance)", "setting": "HIF-1α [2]", "result": "none of these inhibitors affected"}, {"measurement": "HIF-1α protein expression", "setting": "HIF-1α [2]", "result": "accumulation of HIF-1α"}, {"measurement": "IL-17A production in Bi2-treated CD4+ memory T cells (effect of added substance)", "setting": "[6]", "result": "restores; also recorded: fully restored"}, {"measurement": "IFN-γ production by CD4+ memory T cells", "setting": "[6]", "result": "did not affect"}]}
{"smiles": "CC(=O)O", "note": "[acetate]", "values": [{"measurement": "IL-17A production in Bi2-treated CD4+ memory T cells (effect of added substance)", "setting": "[6]; [9]", "result": "dose-dependently reduced"}, {"measurement": "IFN-γ production in Bi2-treated CD4+ memory T cells (effect of added substance)", "setting": "[6]; Bi2 10 μM plus acetate, 3 days", "result": "upregulated"}]}
